Key:
HeLa Cells [1] = assay: Transfection of HeLa cells with DOTMA/SEQ ID NO: 72/peptide compared with Lipofectamine 2000; assay type: cell-based; conditions: fusogenic peptide 0.1 mg/mL
How it was run: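 HeLa cells at 60–70% confluence received 0.01 mL of complexes of EF1Alpha eGFP plasmid (5 μg/mL in OptiMEM) with DOTMA/DOPE (1:1) plus R12-linked peptide, with fusogenic peptide at 0.1 mg/mL final. GFP read by fluorescence plate reader and microscopy (% cells transfected) after 42 h at 37 °C.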

Jurkat Cells = assay: Transfection of Jurkat cells with DOTMA/DOPE/peptide and eGFP plasmid, fluorescent plate reader; assay type: cell-based; conditions: DOTMA/DOPE 1:1 plus peptide with RRRRRRRRRRRR (SEQ ID NO: 109) at n terminus; EF1Alpha eGFP plasmid; 0.02 mL complex; 42 hours
How it was run: (§1)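 Cells at 60-70% confluence got DOTMA/DOPE (1:1) mixed with peptides bearing an N-terminal R12 DNA-binding tag, complexed 10 min with EF1α-eGFP plasmid (5 μg/mL in OptiMEM); 0.01 or 0.02 mL complex per well. After 42 h at 37 °C, GFP read by fluorescence plate reader and % transfected cells by microscopy, relative to lipid without peptide.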

some examined cell types = assay: Transfection expression and % cells transfected over the no peptide control; assay type: cell-based; conditions: on some examined cell types
How it was run: as §1

HuVec Cells = assay: Transfection of HuVec cells with DOTMA/DOPE/peptide and eGFP plasmid, fluorescent plate reader; assay type: cell-based; conditions: DOTMA/DOPE 1:1 plus peptide with RRRRRRRRRRRR (SEQ ID NO: 109) at n terminus; EF1Alpha eGFP plasmid; 0.01 mL complex; 42 hours
How it was run: as §1

Human Fibroblast Cells = assay: Transfection of human fibroblast cells with DOTMA/DOPE/peptide and eGFP plasmid, fluorescent plate reader; assay type: cell-based; conditions: DOTMA/DOPE 1:1 plus peptide with RRRRRRRRRRRR (SEQ ID NO: 109) at n terminus; EF1Alpha eGFP plasmid; 0.01 mL complex; 42 hours
How it was run: as §1

C2C12 Cells = assay: Transfection of C2C12 cells with DOTMA/DOPE/peptide and eGFP plasmid, fluorescent plate reader; assay type: cell-based, mouse; conditions: DOTMA/DOPE 1:1 plus peptide with RRRRRRRRRRRR (SEQ ID NO: 109) at n terminus; EF1Alpha eGFP plasmid; 0.02 mL complex; 42 hours
How it was run: as §1

NL-1 iPS Cells = assay: Transfection of NL-1 iPS cells with DOTMA/DOPE/peptide and eGFP plasmid, fluorescent plate reader; assay type: cell-based; conditions: DOTMA/DOPE 1:1 plus peptide with RRRRRRRRRRRR (SEQ ID NO: 109) at n terminus; EF1Alpha eGFP plasmid; 42 hours
HeLa Cells [2] = assay: Transfection of HeLa cells with DOTMA/DOPE/peptide and eGFP plasmid, fluorescent plate reader; assay type: cell-based; conditions: DOTMA/DOPE 1:1 plus peptide with RRRRRRRRRRRR (SEQ ID NO: 109) at n terminus; EF1Alpha eGFP plasmid; 0.01 mL complex; 42 hours
How it was run: as §1

[3] = 0.1 μL of DOTMA/SEQ ID NO: 72/Peptide in well of a 96 well plate
[4] = 0.2 μL of DOTMA/SEQ ID NO: 72/Peptide in well of a 96 well plate
[5] = 0.3 μL of DOTMA/SEQ ID NO: 72/Peptide in well of a 96 well plate
[6] = 0.4 μL of DOTMA/SEQ ID NO: 72/Peptide in well of a 96 well plate

Substance | RF (Relative Fluorescence), DOTMA/SEQ ID NO: 72/Peptide, HeLa Cells (HeLa Cells [1]; [3]) | RF (Relative Fluorescence), DOTMA/SEQ ID NO: 72/Peptide, HeLa Cells (HeLa Cells [1]; [4]) | RF (Relative Fluorescence), DOTMA/SEQ ID NO: 72/Peptide, HeLa Cells (HeLa Cells [1]; [5]) | RF (Relative Fluorescence), DOTMA/SEQ ID NO: 72/Peptide, HeLa Cells (HeLa Cells [1]; [6]) | RF (Relative Fluorescence) of Transfection of Jurkat Cells (Jurkat Cells) | transfection expression and the % cells transfected over the no peptide control (some examined cell types) | RF (Relative Fluorescence) of Transfection of HuVec Cells (HuVec Cells) | RF (Relative Fluorescence) of Transfection of Human Fibroblast Cells (Human Fibroblast Cells) | RF (Relative Fluorescence) of Transfection of C2C12 Cells (C2C12 Cells) | RF (Relative Fluorescence) of Transfection of NL-1 iPS Cells (NL-1 iPS Cells) | RF (Relative Fluorescence) of Transfection of HeLa Cells (HeLa Cells [2])
219 (RKRLQVQLSIRT; Peptidic transfection agent) [compound 219] | 12135 | 13841 | 13531 | 11712 | 10762 | increased | 6237 | 7389 | 1346 | 5770 | 13721
381 (TAGSCL; Peptidic transfection agent) [compound 381] | 34187 | 37463 | 27007 | 20088 | 10806 | increased | 17542 | 9953 | 8834 | 9644 | 22652
357 (SETTVKYIFRLHE; Peptidic transfection agent) [compound 357] | 7718 | 11798 | 9229 | 9107 | 2256 | increased | 6009 | 7167 | 4506 | 15624 | 22679
347 (DLGTAGSCLRKFSTM; Peptidic transfection agent) [compound 347] | 23188 | 21493 | 16814 | 14140 | 17720 | increased | 20728 | 9255 | 4457 | 21865 | 22527
377 (TAGSCLRRFSTM; Peptidic transfection agent) [compound 377] | 39115 | 40072 | 32914 | 22457 | 6785 | increased | 9326 | 6638 | 1710 | 5474 | 15091
351 (LNRQELFPFG; Peptidic transfection agent) [compound 351] | 7678 | 11499 | 10575 | 8791 | 9730 | increased | 15379 | 8061 | 3530 | 24646 | 12279
